{
  "source": "patent US20250215044A1",
  "about": "“Compounds and Methods for Inhibiting LPA” (Ionis Pharmaceuticals, Inc., priority 2023, published 2025)",
  "origin": "cited, not measured here",
  "test_system": "plasma Lp(a)",
  "design": "concentration or dose not given beside the values",
  "details": "clinical setting",
  "data": [
    {"molecule": "COc1cc(F)c(C(C)C)cc1-c1ccc(C(F)(F)F)cc1CN1C(=O)O[C@H](c2cc(C(F)(F)F)cc(C(F)(F)F)c2)[C@@H]1C", "note": "[Anacetrapib]", "values": [
      {"measurement": "reduction of plasma Lp(a) levels", "value": 36, "unit": "%"}
    ]},
    {"molecule": "CC(C)c1cc(Oc2c(Br)cc(NC(=O)CC(=O)O)cc2Br)ccc1O", "note": "[Epirotirome]", "values": [
      {"measurement": "reduction of plasma Lp(a) levels", "value": 43, "unit": "%"}
    ]},
    {"molecule": "O=C(NC1CCN(CCCCC2(C(=O)NCC(F)(F)F)c3ccccc3-c3ccccc32)CC1)c1ccccc1-c1ccc(C(F)(F)F)cc1", "note": "[Lomitapide]", "values": [
      {"measurement": "reduction of plasma Lp(a) levels", "value": 17, "unit": "%"}
    ]},
    {"molecule": "O=C(O)c1cccnc1", "note": "[Niaspan]", "values": [
      {"measurement": "reduction of plasma Lp(a) levels", "value": 39, "unit": "%"}
    ]},
    {"molecule": "CC(=O)Oc1ccccc1C(=O)O", "note": "[aspirin]", "values": [
      {"measurement": "reduction of plasma Lp(a) levels", "value": 18, "unit": "%"}
    ]},
    {"molecule": "Mipomersen", "values": [
      {"measurement": "reduction of plasma Lp(a) levels", "value": 32, "unit": "%"}
    ]}
  ]
}
